According to ChEMBL document CHEMBL3853350 (ACS Med Chem Lett, 2016):

Legend:
[1] = molecular target: Voltage-gated inwardly rectifying potassium channel KCNH2 (Homo sapiens, UniProt Q12809); assay: Inhibition of human ERG
[2] = Fraction unbound in mouse plasma at 1 uM after 5 hrs by rapid equilibrium dialysis based LC-MS/MS analysis; type: ADME, cell-free
[3] = Oral bioavailability in Sprague-Dawley rat plasma at 5 mg/kg measured 24 hrs post dose by LC/MS/MS analysis; type: ADME, organism-based
[4] = Volume of distribution at steady state in CD-1 mouse plasma at 1 mg/kg, iv measured 24 hrs post dose by LC/MS/MS analysis; type: ADME, organism-based; conditions: read-out: Vdss
Cytochrome P450 2C8 = molecular target: T1, Cytochrome P450 2C8 (Homo sapiens, UniProt P10632); assay: Inhibition of CYP2C8 in human liver microsomes after 5 mins in presence of NADPH by LC-MS/MS analysis; type: ADME
T1 sequence (P10632 whole entry): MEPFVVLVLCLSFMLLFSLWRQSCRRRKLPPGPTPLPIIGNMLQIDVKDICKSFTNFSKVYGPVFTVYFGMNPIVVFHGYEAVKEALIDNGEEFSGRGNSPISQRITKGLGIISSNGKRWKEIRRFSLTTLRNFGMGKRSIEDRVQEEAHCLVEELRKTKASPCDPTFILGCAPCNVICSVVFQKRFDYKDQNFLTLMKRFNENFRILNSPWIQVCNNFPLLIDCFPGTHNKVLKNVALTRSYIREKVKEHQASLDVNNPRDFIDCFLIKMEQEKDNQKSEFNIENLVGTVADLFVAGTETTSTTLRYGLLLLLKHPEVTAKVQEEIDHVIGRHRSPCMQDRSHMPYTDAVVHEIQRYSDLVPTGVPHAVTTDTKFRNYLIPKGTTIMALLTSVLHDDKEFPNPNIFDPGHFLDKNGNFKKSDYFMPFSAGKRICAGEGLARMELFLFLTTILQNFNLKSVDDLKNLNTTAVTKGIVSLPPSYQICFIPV

Salmonella typhimurium = assay: Genotoxicity in Salmonella typhimurium by Ames test; type: toxicity, organism-based; conditions: salmonella enterica subsp. enterica serovar typhimurium
[5] = Clearance in CD-1 mouse plasma at 1 mg/kg, iv measured 24 hrs post dose by LC/MS/MS analysis; type: ADME, organism-based
[6] = Half life in CD-1 mouse plasma at 1 mg/kg, iv by LC/MS/MS analysis; type: ADME, organism-based
[7] = Oral bioavailability in Beagle dog plasma at […] measured 24 hrs post dose by LC/MS/MS analysis; type: ADME, organism-based, Canis lupus familiaris
[8] = Cmax in CD-1 mouse plasma at 5 mg/kg administered via oral gavage measured 24 hrs post dose by LC/MS/MS analysis; type: ADME, organism-based; parameters: dose 5 mg/kg, route oral
[9] = Fraction unbound in monkey plasma at 1 uM after 5 hrs by rapid equilibrium dialysis based LC-MS/MS analysis; type: ADME, cell-free, Macaca mulatta; conditions: rhesus monkey
[10] = Clearance in Beagle dog plasma at 0.5 mg/kg, iv measured 24 hrs post dose by LC/MS/MS analysis; type: ADME, organism-based, Canis lupus familiaris
Cytochrome P450 2B6 = molecular target: T2, Cytochrome P450 2B6 (Homo sapiens, UniProt P20813); assay: Inhibition of CYP2B6 in human liver microsomes after 5 mins in presence of NADPH by LC-MS/MS analysis; type: ADME
T2 sequence (P20813 whole entry): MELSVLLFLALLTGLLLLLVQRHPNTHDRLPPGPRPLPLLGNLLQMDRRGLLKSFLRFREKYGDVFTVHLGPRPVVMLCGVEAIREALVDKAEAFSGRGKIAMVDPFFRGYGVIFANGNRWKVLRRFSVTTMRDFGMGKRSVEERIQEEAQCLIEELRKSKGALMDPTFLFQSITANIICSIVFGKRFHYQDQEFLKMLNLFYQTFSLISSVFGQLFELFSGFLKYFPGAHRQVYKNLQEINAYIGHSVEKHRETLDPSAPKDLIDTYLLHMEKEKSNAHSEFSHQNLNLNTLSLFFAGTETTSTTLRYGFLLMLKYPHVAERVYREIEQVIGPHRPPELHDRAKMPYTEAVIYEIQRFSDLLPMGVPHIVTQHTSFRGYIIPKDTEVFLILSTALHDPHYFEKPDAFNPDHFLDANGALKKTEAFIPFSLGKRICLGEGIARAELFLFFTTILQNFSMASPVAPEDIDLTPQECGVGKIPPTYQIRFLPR

[11] = Volume of distribution at steady state in Beagle dog plasma at 0.5 mg/kg, iv measured 24 hrs post dose by LC/MS/MS analysis; type: ADME, organism-based, Canis lupus familiaris; conditions: read-out: Vdss
[12] = Cmax in Sprague-Dawley rat plasma at 5 mg/kg administered via oral gavage measured 24 hrs post dose by LC/MS/MS analysis; type: ADME, organism-based; parameters: dose 5 mg/kg, route oral
[13] = AUC (0 to infinity) in Sprague-Dawley rat plasma at 5 mg/kg administered via oral gavage measured 24 hrs post dose by LC/MS/MS analysis; type: ADME, organism-based; parameters: dose 5 mg/kg, time infinity, route oral
Cytochrome P450 2C19 = Cytochrome P450 2C19 (Homo sapiens, UniProt P33261); assay: Inhibition of CYP2C19 in human liver microsomes after 5 mins in presence of NADPH by LC-MS/MS analysis; type: ADME
[14] = Half life in mouse hepatocytes at 1 uM by LC/MS analysis; type: ADME, cell-based, Hepatocyte
[15] = Fraction unbound in human plasma at 1 uM after 5 hrs by rapid equilibrium dialysis based LC-MS/MS analysis; type: ADME, cell-free
[16] = Cmax in cynomolgus monkey plasma at […] administered via oral gavage measured 24 hrs post dose by LC/MS/MS analysis; type: ADME, organism-based, Macaca fascicularis; parameters: dose 2.5 mg/kg, route oral
[17] = Volume of distribution at steady state in cynomolgus monkey plasma at 0.5 mg/kg, iv measured 24 hrs post dose by LC/MS/MS analysis; type: ADME, organism-based, Macaca fascicularis; conditions: read-out: Vdss
[18] = Half life in Beagle dog plasma at 0.5 mg/kg, iv by LC/MS/MS analysis; type: ADME, organism-based, Canis lupus familiaris
[19] = Fraction unbound in dog plasma at 1 uM after 5 hrs by rapid equilibrium dialysis based LC-MS/MS analysis; type: ADME, cell-free, Canis lupus familiaris
[20] = Cmax in Beagle dog plasma at […] administered via oral gavage measured 24 hrs post dose by LC/MS/MS analysis; type: ADME, organism-based, Canis lupus familiaris; parameters: dose 2.5 mg/kg, route oral
[21] = Half life in cynomolgus monkey plasma at 0.5 mg/kg, iv by LC/MS/MS analysis; type: ADME, organism-based, Macaca fascicularis
Cytochrome P450 1A2 = molecular target: T3, Cytochrome P450 1A2 (Homo sapiens, UniProt P05177); assay: Inhibition of CYP1A2 in human liver microsomes after 5 mins in presence of NADPH by LC-MS/MS analysis; type: ADME
T3 sequence (P05177 whole entry): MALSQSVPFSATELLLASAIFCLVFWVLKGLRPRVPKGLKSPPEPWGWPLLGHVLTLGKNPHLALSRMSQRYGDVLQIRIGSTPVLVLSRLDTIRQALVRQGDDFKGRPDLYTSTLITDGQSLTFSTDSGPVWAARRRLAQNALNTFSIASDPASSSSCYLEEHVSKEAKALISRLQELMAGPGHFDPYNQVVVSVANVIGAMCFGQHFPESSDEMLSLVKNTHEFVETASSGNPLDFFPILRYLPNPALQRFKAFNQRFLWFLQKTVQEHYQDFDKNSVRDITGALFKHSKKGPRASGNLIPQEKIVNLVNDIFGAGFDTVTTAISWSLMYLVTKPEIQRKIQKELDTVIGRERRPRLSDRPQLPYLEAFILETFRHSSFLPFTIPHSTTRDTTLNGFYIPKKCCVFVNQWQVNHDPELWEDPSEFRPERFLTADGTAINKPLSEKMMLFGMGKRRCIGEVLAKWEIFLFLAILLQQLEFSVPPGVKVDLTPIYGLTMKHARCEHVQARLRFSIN

Chain of Cytochrome P450 2C19 (P33261 whole entry): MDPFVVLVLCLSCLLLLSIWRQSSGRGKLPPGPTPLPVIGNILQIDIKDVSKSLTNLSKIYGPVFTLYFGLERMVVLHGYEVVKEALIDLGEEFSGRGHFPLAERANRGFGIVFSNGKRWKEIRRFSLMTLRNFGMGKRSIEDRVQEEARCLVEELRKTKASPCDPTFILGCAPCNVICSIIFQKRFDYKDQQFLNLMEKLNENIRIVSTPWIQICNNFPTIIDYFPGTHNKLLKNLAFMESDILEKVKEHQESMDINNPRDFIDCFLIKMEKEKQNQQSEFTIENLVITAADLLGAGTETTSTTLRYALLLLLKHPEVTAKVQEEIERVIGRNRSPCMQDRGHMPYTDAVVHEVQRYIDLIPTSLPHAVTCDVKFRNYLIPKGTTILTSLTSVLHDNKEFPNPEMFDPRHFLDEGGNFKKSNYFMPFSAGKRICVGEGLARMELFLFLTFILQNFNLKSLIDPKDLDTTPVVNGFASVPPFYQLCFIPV
Chain of Voltage-gated inwardly rectifying potassium channel KCNH2 (Q12809 whole entry): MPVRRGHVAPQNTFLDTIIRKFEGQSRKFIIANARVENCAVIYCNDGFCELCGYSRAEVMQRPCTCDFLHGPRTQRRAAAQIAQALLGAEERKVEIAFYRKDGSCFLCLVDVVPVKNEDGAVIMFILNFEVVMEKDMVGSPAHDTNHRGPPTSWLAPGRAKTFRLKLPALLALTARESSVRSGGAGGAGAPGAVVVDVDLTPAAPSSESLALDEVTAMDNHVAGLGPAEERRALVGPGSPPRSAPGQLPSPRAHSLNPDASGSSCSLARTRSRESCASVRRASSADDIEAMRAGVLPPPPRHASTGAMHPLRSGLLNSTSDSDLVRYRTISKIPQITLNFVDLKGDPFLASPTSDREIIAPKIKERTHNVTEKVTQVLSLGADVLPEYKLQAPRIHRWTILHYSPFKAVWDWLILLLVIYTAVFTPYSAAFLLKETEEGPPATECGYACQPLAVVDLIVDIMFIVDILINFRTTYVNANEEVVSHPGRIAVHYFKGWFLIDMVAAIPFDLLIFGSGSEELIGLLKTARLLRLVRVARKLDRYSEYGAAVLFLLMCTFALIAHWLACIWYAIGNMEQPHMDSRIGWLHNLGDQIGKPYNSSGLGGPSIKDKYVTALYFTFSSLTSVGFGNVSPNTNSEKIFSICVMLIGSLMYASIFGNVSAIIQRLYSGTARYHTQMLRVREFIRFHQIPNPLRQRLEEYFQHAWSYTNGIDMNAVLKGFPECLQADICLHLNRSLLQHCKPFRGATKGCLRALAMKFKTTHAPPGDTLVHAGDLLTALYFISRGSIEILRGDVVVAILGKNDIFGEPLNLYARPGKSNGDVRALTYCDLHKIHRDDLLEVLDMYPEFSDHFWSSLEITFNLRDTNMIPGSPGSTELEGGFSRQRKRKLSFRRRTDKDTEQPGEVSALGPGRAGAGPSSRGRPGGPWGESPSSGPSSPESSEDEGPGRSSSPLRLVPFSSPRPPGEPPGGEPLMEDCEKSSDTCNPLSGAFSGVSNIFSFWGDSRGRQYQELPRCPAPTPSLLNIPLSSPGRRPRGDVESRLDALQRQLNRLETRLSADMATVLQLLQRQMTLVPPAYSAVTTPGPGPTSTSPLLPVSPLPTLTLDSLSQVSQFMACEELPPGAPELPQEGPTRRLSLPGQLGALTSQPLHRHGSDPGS

Compound: C[C@H](NC(=O)c1c(N)nn2cccnc12)c1cc2cccc(C#Cc3cnn(C)c3)c2c(=O)n1-c1ccccc1 [EGANELISIB]
- IC50 [1]: > 10 µM
- fraction unbound at 5 h, 1 µM [2]: 0.022
- bioavailability [3]: 57%
- Vd [4]: 0.8 L/kg
- IC50 (Cytochrome P450 2C8): > 20 µM
- Activity (Salmonella typhimurium): Non-Toxic
- clearance [5]: 3.6 mL/min/kg
- half-life [6]: 3.2 h
- bioavailability at 24 h [7]: 65%
- Cmax [8]: 3600 nM
- fraction unbound at 5 h, 1 µM [9]: 0.04
- clearance [10]: 2.8 mL/min/kg
- IC50 (Cytochrome P450 2B6): > 20 µM
- Vd [11]: 1.3 L/kg
- Cmax [12]: 2000 nM
- AUC(0-inf) [13]: 8050 ng·h/mL
- IC50 (Cytochrome P450 2C19): > 20 µM
- half-life at 1 µM [14]: > 6 h
- fraction unbound at 5 h, 1 µM [15]: 0.011
- Cmax at 24 h [16]: 560 nM
- Vd [17]: 1.3 L/kg
- half-life [18]: 6.7 h
- fraction unbound at 5 h, 1 µM [19]: 0.028
- Cmax at 24 h [20]: 1900 nM
- half-life [21]: 4.3 h
- IC50 (Cytochrome P450 1A2): > 20 µM
